The subject of assay [1] is GFP-14-3-3β and its binding proteins. Description: GFP-14-3-3β co-IP with LC-MS/MS label-free quantification, untreated versus PP1c-treated. Also noted: species or system human. Here is the method: (§1) HeLa Kyoto cells expressing transiently transfected pEGFP(C1)-14-3-3β or pEGFP(C1) control plasmid, were incubated with 20 nM Calyculin A (# 9902 S, Cell Signaling Technology) for 12 min. Cells were washed twice on ice with cold PBS and after addition of 500 µL lysis buffer (100 mM NaCl, 10 mM Tris, 0.1% IGEPAL, 1 mM EDTA, 1 mM EGTA, 20 nM Calyculin A, 1x cOmplete Mini protease inhibitor cocktail (Sigma), 1 mM DTT, 1 mM MnCl2) cells were scraped from plates, lysed by 10 pushes through an injection needle (21 G, BD) and the insoluble fraction was pelleted by centrifugation (10 min, 10^4 rcf, 4 °C). Supernatants were then subjected to incubation with 1 µM recombinant phosphatase or buffer for 1 h at 30 °C. Next, we subjected samples to immunoprecipitation using α-GFP nanobodies covalently coupled to agarose beads (2 h, 4 °C, obtained from the EMBL PEPcore Core Facility). Beads were then washed three times with lysis buffer and samples were eluted in 1x LDS sample buffer (Thermo Fisher Scientific) by heating to 70 °C for 10 min.
(§2) The samples were then reduced with 25 mM dithiothreitol (10 min at 70 °C) and alkylated with 55 mM chloroacetamide (room temperature, 30 min, in the dark). Proteins were run on a precast 4–12% NuPAGE gel (ThermoFisher Scientific) for about 1 cm to concentrate the sample prior to in-gel tryptic digestion, which was performed according to the standard procedures. The peptides obtained were dried to completeness and resuspended in 12 µL of buffer A (0.1% FA), and 5 µL of sample were injected per MS measurement. The experiment was carried out in three independent replicates.
(§3) The samples were analyzed by LC-MS/MS on a Dionex Ultimate 3000 nano-HPLC coupled online to a Fusion Lumos Tribrid mass spectrometer (Thermo Fisher Scientific). Peptides were delivered to a trap column (75 µm × 2 cm, packed in-house with 5 µm C18 resin; Reprosil PUR AQ, Dr. Maisch) and washed using 0.1% FA at a flow rate of 5 µL/min for 10 min. Subsequently, peptides were transferred to an analytical column (75 µm × 45 cm, packed in-house with 3 µm C18 resin; Reprosil Gold) applying a flow rate of 300 nL/min and separated using a 60 min linear gradient from 4% to 32% LC solvent B (0.1% FA, 5% DMSO in ACN) in LC solvent A (0.1% FA in 5% DMSO). The eluate from the analytical column was sprayed via a stainless steel emitter (Thermo Fisher Scientific) at a source voltage of 2.1 kV into the mass spectrometer. The transfer capillary was heated to 275 °C. The Fusion Lumos was operated in positive ionization mode and data-dependent acquisition (DDA), automatically switching between MS1 and MS2 spectrum acquisition. Full scan MS1 spectra were recorded in the Orbitrap from 360 to 1300 m/z at a resolution of 60k (automatic gain control (AGC) target value of 4e5 charges, maximum injection time (maxIT) of 50 ms). Up to 20 peptide precursors were isolated (isolation window, 1.7 m/z; maximum injection time, 25 ms; and AGC value, 1e5), fragmented by high-energy collision-induced dissociation (HCD) using 30% normalized collision energy (NCE), and analyzed at a resolution of 15k in the Orbitrap. Precursor ions that were singly charged, unassigned, or with charge states >6+ were excluded. The dynamic exclusion duration of fragmented precursor ions was 20 s.
(§4) Peptide and protein identification and LFQ were performed using MaxQuant software (version 1.6.1.0)[64] by searching the data against all canonical protein sequences as annotated in the Swissprot reference database (human proteins only, 20193 entries, downloaded 22 March 2016, internally annotated with PFAM domains) using the embedded search engine Andromeda[65]. The MaxQuant search was performed using two variable modifications; oxidation of methionine and N-terminal protein acetylation. Carbamidomethylation on cysteines was specified as a fixed modification. Trypsin (Trypsin/P) was specified as the proteolytic enzyme with up to two allowed missed cleavage sites.

The subject of assay [2] is GFP-14-3-3β. Description: GFP-14-3-3β co-IP with LC-MS/MS, untreated GFP-14-3-3β versus GFP control (14-3-3 interactome). The class given is binding, human. Here is the method: as §1, §2, §3, §4
The mark [3] stands for this setting: PP1 vs untreated, LFQ intensities, replicates 1-3.
The mark [4] stands for this setting: untreated vs GFP, LFQ intensities, replicates 1-3.
[5] abbreviates: pairwise comparison PP1 vs untreated, student's t-test, 3 replicates each, LC-MS/MS label-free quantification.
Setting [6] is: pairwise comparison untreated GFP-14-3-3β vs GFP, student's t-test, 3 replicates each, LC-MS/MS label-free quantification.
Setting [7] is: log2 difference, pairwise comparison PP1 vs untreated, label-free quantification, 3 replicates each.
Where [8] appears, read: log2 difference, pairwise comparison untreated vs GFP, label-free quantification, 3 replicates each.
The mark [9] stands for this setting: PP1 vs untreated, LFQ intensities, 3 replicates each.
The mark [10] stands for this setting: untreated vs GFP, LFQ intensities, 3 replicates each.
[11] abbreviates: pairwise comparison PP1 vs untreated.
Setting [12] is: pairwise comparison untreated vs GFP.
[13] abbreviates: GFP-14-3-3β co-IP LC-MS/MS, PP1 vs untreated, student's t-test, label-free quantification, 3 replicates each.
[14] abbreviates: GFP-14-3-3β co-IP LC-MS/MS, untreated vs GFP, student's t-test, label-free quantification, 3 replicates each.

As to SMARCA5, the “Difference (log2), PP1 vs untreated” value in assay [1] (setting [3]) is listed as -1.929 log2. Further, in assay [2] (setting [4]), the “Difference (log2), untreated vs GFP” value is on record as 3.229 log2.
Consider FRYL, for which the “Difference (log2), PP1 vs untreated” value in assay [1] (setting [5]) is given as -4.747 log2. The “Difference (log2), untreated vs GFP” value in assay [2] (setting [6]) was determined as 5.1751 log2.
Take MARK3: in assay [1] (setting [5]), the “Difference (log2), PP1 vs untreated” value is listed as -2.088 log2. Also, in assay [2] (setting [6]), the “Difference (log2), untreated vs GFP” value is recorded as 4.732 log2.
Consider G3BP1, for which the “Difference (log2), PP1 vs untreated” value in assay [1] (PP1 vs untreated, label-free quantification) is reported as 0.9288 log2. Besides, the “Difference (log2), untreated vs GFP” value in assay [2] (untreated vs GFP, label-free quantification) was -0.3554 log2.
Regarding FXR2, the “Difference (log2), PP1 vs untreated” value in assay [1] (setting [7]) was 2.11. For the same substance, the “Difference (log2), untreated vs GFP” value in assay [2] (setting [8]) is recorded as -0.343.
On to TUBA4A, for which the “Difference (log2), PP1 vs untreated” value in assay [1] (setting [9]) is given as 0.3784 log2. Moreover, the “Difference (log2), untreated vs GFP” value in assay [2] (setting [10]) was -0.9346 log2.
In the case of XRCC5, the “Difference (log2), PP1 vs untreated” value in assay [1] (setting [11]) turned out to be 0.08186 log2. Further, the “Difference (log2), untreated vs GFP” value in assay [2] (setting [12]) was -0.1105 log2.
As to TTC27, in assay [1] (setting [9]), the “Difference (log2), PP1 vs untreated” value amounted to 0.3393 log2. For the same substance, in assay [2] (setting [10]), the “Difference (log2), untreated vs GFP” value amounted to 0.5169 log2.
Regarding TAF15, the “Difference (log2), PP1 vs untreated” value in assay [1] (setting [3]) was -1.048 log2. Also, the “Difference (log2), untreated vs GFP” value in assay [2] (setting [4]) is on record as 0.6755 log2.
As for AKAP13, the “Difference (log2), PP1 vs untreated” value in assay [1] (setting [13]) is reported as -0.6453 log2. For the same substance, the “Difference (log2), untreated vs GFP” value in assay [2] (setting [14]) amounted to 1.366 log2.
DNAJA2: the “Difference (log2), PP1 vs untreated” value in assay [1] (setting [9]) is recorded as 0.6145 log2. In addition, in assay [2] (setting [10]), the “Difference (log2), untreated vs GFP” value was -1.855 log2.
On to LARS, for which the “Difference (log2), PP1 vs untreated” value in assay [1] (setting [11]) turned out to be 0.05859 log2. Also, the “Difference (log2), untreated vs GFP” value in assay [2] (setting [12]) was -0.7263 log2.
For EPPK1, in that order: 0.1139 log2 and 0.5175 log2.
On to VDAC1, for which the “Difference (log2), PP1 vs untreated” value in assay [1] (setting [9]) came out at 0.6266 log2. In assay [2] (setting [10]), the “Difference (log2), untreated vs GFP” value was 1.0866 log2.
On to BCLAF1, for which, in assay [1] (setting [3]), the “Difference (log2), PP1 vs untreated” value is recorded as -1.628 log2. For the same substance, the “Difference (log2), untreated vs GFP” value in assay [2] (setting [4]) was found to be 1.7962 log2.
On to MLEC, for which the “Difference (log2), PP1 vs untreated” value in assay [1] (setting [3]) is -1.535 log2. Besides, the “Difference (log2), untreated vs GFP” value in assay [2] (setting [4]) is 0.8854 log2.
HNRNPU: in assay [1] (setting [13]), the “Difference (log2), PP1 vs untreated” value is listed as -0.3998 log2. Also, in assay [2] (setting [14]), the “Difference (log2), untreated vs GFP” value is on record as 0.9402 log2.
With EMC1, the “Difference (log2), PP1 vs untreated” value in assay [1] (setting [7]) was found to be 1.575. In addition, the “Difference (log2), untreated vs GFP” value in assay [2] (setting [8]) is reported as -0.5374.
For the substance VIM, the “Difference (log2), PP1 vs untreated” value in assay [1] (setting [11]) is reported as 0.1241 log2. In assay [2] (setting [12]), the “Difference (log2), untreated vs GFP” value is 0.4109 log2.
Regarding MYCBP2, the “Difference (log2), PP1 vs untreated” value in assay [1] (setting [5]) is given as -3.693 log2. Moreover, in assay [2] (setting [6]), the “Difference (log2), untreated vs GFP” value was found to be 7.929 log2.
Regarding PRRC2A, the “Difference (log2), PP1 vs untreated” value in assay [1] (setting [9]) stood at 0.5007 log2. Moreover, in assay [2] (setting [10]), the “Difference (log2), untreated vs GFP” value was found to be 0.07605 log2.
In the case of PSIP1, the “Difference (log2), PP1 vs untreated” value in assay [1] (setting [13]) is listed as -0.2351 log2. The “Difference (log2), untreated vs GFP” value in assay [2] (setting [14]) stood at 1.521 log2.
For the substance AHNAK, in assay [1] (setting [13]), the “Difference (log2), PP1 vs untreated” value is listed as -0.4038 log2. Besides, the “Difference (log2), untreated vs GFP” value in assay [2] (setting [14]) is -1.21 log2.
Turning to RFC3, the “Difference (log2), PP1 vs untreated” value in assay [1] (setting [7]) amounted to 1.3203. The “Difference (log2), untreated vs GFP” value in assay [2] (setting [8]) is on record as -0.5439.
Consider IQGAP1, for which the “Difference (log2), PP1 vs untreated” value in assay [1] (setting [13]) is given as -0.359 log2. Further, the “Difference (log2), untreated vs GFP” value in assay [2] (setting [14]) was 0.3872 log2.
ANXA2;ANXA2P2: in assay [1] (setting [11]), the “Difference (log2), PP1 vs untreated” value is given as 0.07284 log2. Also, the “Difference (log2), untreated vs GFP” value in assay [2] (setting [12]) is recorded as -0.03703 log2.
On to MYO5A, for which, in assay [1] (setting [7]), the “Difference (log2), PP1 vs untreated” value was determined as 1.396. Besides, the “Difference (log2), untreated vs GFP” value in assay [2] (setting [8]) was found to be 0.8351.

For the origin of these results see publication PMC7367873, “Dissecting the sequence determinants for dephosphorylation by the catalytic subunits of phosphatases PP1 and PP2A” (Nature Communications, 2020).
